Results published in patent publication US6268181A, “Methods for producing a potentiator of Bacillus pesticidal activity” (Valent BioSciences, Corporation, priority 1998, dated 2001).

How the values were obtained:
Spodoptera exigua = Spodoptera exigua micro-bioassay (potentiation of Bt Cry protein by Ia); type: in vivo; details: for Mortality: after 2 days
Procedure: Activity is monitored by a Spodoptera exigua micro-bioassay, and purity is determined by capillary electrophoresis. […] The trays containing the various samples are air dried. Two to four 2nd or early 3rd instar Spodoptera exigua are added to the wells containing the dried sample. The wells are sealed with mylar poked with holes and are incubated for 2-3 days at 30° C. Degree of stunting and percent mortality are then recorded. Typically, 5 replicate wells are run for each sample.
*Mortality = # insects dead/# total insects after 2 days
.dagger.Stunt score is defined by the average size of the live insect
larvae at the end of the bioassay: 4.0 = untreated control, 3.0 = 75% size
of untreated control, 2.0 = 50% size of untreated control, 1.0 = 25% size
of untreated control, 0.0 = no growth or size unchanged from start of […]

Phytophthora medicaginis = details: cited from earlier work
[1] = Table II, 120 μg/ml, without Ia
[2] = Table II, 240 μg/ml, without Ia

For “CryIA(c): Bt crystal delta-endotoxin; truncated in Table I, full-length (130 kDa) in Table II”, the “Stunt Score” value (Spodoptera exigua; Table II, 0.8 μg/ml, with Ia) was 1.6, the Mortality (Spodoptera exigua; Table II, 0.8 μg/ml, with Ia) was 2/5 and the “Stunt Score” value (Spodoptera exigua; Table II, 3 μg/ml, with Ia) was 1.0. For the same molecule, the Mortality (Spodoptera exigua; Table II, 3 μg/ml, with Ia) was 4/5, the “Stunt Score” value (Spodoptera exigua; Table II, 15 μg/ml, with Ia) was 0.0 and the Mortality (Spodoptera exigua; Table II, 15 μg/ml, with Ia) was 4/5. For the same molecule, the Mortality (Spodoptera exigua; Table II, 30 μg/ml, with Ia) was 5/5, the “Stunt Score” value (Spodoptera exigua; Table II, 30 μg/ml, without Ia) was 4.0 and the Mortality (Spodoptera exigua; Table II, 30 μg/ml, without Ia) was 0/5. The Mortality (Spodoptera exigua; Table II, 60 μg/ml, with Ia) was 5/5, the “Stunt Score” value (Spodoptera exigua; Table II, 60 μg/ml, without Ia) was 2.2 and the Mortality (Spodoptera exigua; Table II, 60 μg/ml, without Ia) was 0/5. The “Stunt Score” value (Spodoptera exigua; [1]) was 2.2, the Mortality (Spodoptera exigua; [1]) was 0/5 and the “Stunt Score” value (Spodoptera exigua; [2]) was 0.5. For the same molecule, the Mortality (Spodoptera exigua; [2]) was 1/5, the “concentration giving same mortality/stunt score as protein with Ia” value (Spodoptera exigua; protein alone, full-length CryIA(c), CryII, CryIC) was 240 µg/mL and the Mortality (Spodoptera exigua; truncated Bt protein, OD280 0.0006, with Ia) was 1/5. For the same molecule, the “Stunt Score” value (Spodoptera exigua; truncated Bt protein, OD280 0.0006, with Ia, 4.0 = untreated control, 0.0 = no growth) was 1.0, the Mortality (Spodoptera exigua; truncated Bt protein, OD280 0.0012, with Ia) was 0/5 and the “Stunt Score” value (Spodoptera exigua; truncated Bt protein, OD280 0.0012, with Ia, 4.0 = untreated control, 0.0 = no growth) was 1.0. The Mortality (Spodoptera exigua; truncated Bt protein, OD280 0.0025, with Ia) was 2/5, the “Stunt Score” value (Spodoptera exigua; truncated Bt protein, OD280 0.0025, with Ia, 4.0 = untreated control, 0.0 = no growth) was 2.0 and the Mortality (Spodoptera exigua; truncated Bt protein, OD280 0.005, with Ia) was 1/5. The “Stunt Score” value (Spodoptera exigua; truncated Bt protein, OD280 0.005, with Ia, 4.0 = untreated control, 0.0 = no growth) was 0.0, the Mortality (Spodoptera exigua; truncated Bt protein, OD280 0.010, with Ia) was 0/5 and the “Stunt Score” value (Spodoptera exigua; truncated Bt protein, OD280 0.010, with Ia, 4.0 = untreated control, 0.0 = no growth) was 0.2. The Mortality (Spodoptera exigua; truncated Bt protein, OD280 0.020, with Ia) was 1/5, the “Stunt Score” value (Spodoptera exigua; truncated Bt protein, OD280 0.020, with Ia, 4.0 = untreated control, 0.0 = no growth) was 0.0 and the Mortality (Spodoptera exigua; truncated Bt protein, OD280 0.020, without Ia) was 0/5. For the same molecule, the “Stunt Score” value (Spodoptera exigua; truncated Bt protein, OD280 0.020, without Ia, 4.0 = untreated control, 0.0 = no growth) was 2.8, the Mortality (Spodoptera exigua; truncated Bt protein, OD280 0.040, without Ia) was 0/5 and the “Stunt Score” value (Spodoptera exigua; truncated Bt protein, OD280 0.040, without Ia, 4.0 = untreated control, 0.0 = no growth) was 2.6. The Mortality (Spodoptera exigua; truncated Bt protein, OD280 0.075, without Ia) was 0/5, the “Stunt Score” value (Spodoptera exigua; truncated Bt protein, OD280 0.075, without Ia, 4.0 = untreated control, 0.0 = no growth) was 3.4 and the “OD280 giving same stunt score as protein with Ia” value (Spodoptera exigua; truncated CryIA(c), tested alone) was 0.075 OD280. For the same molecule, the “OD280 giving same stunt score as protein alone” value (Spodoptera exigua; truncated CryIA(c), with Ia) was 0.0006 OD280 and the “concentration giving same mortality/stunt score as protein alone” value (Spodoptera exigua; with Ia, full-length CryIA(c), CryII inclusions, CryIC inclusions) was 0.75 µg/mL.
For `NC(=O)NCC(NC(=O)C(O)C(O)C(N)C(O)CC(O)C(N)CO)C(N)=O` (stereo not shown) [zwittermicin A], the infection of alfalfa (Phytophthora medicaginis; alfalfa) is listed as “reduces the infection” and the “growth of Phytophthora medicaginis” value (Phytophthora medicaginis; plant pathogen) is listed as “inhibits the growth”.
